From US11691962B2 (eXIthera Pharmaceuticals, Inc., priority 2018, dated 2023)

Experiments:
Format in all cases: biochemical
Factor XIa = Factor XIa (Homo sapiens (Human), UniProt P03951); experiment: Factor XIa enzyme inhibition assay (dose response, fluorogenic AMC substrate); conditions: read-out: hFXIa IC50
Summary of the method: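 Human FXIa at 0.25 nM final with 50 μM final PyroGlu-Pro-Arg-AMC in 20 mM Hepes pH 7.4, 150 mM NaCl, 0.02% Tween 20. Two-fold serial compound dilutions; fluorescence read every minute for 30 min at 30° C. IC50 from a four-parameter Hill fit.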

Thrombin = Thrombin (Homo sapiens (Human), UniProt P00734); experiment: Dose response assay for protease inhibitors: thrombin; conditions: selectivity, thrombin over Factor XIa
Summary of the method: (§1)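 Fluorogenic AMC-peptide cleavage in 20 mM Hepes pH 7.4, 150 mM NaCl, 0.02% Tween 20; 100 μM stock substrate dilution (Glp-Pro-Arg-AMC for thrombin/trypsin; Pro-Phe-Arg-AMC or Boc-Leu-Gly-Arg-AMC for Factor Xa). Enzyme diluted to 0.5 nM, added last to two-fold compound series; kinetic read at 30° C, 30 min (Factor Xa 60 min); IC50 fitted.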

Trypsin = experiment: Dose response assay for protease inhibitors: trypsin; conditions: selectivity, trypsin over Factor XIa
Summary of the method: as §1

Factor Xa = Factor Xa (Homo sapiens (Human), UniProt P00742); experiment: Dose response assay for protease inhibitors: Factor Xa; conditions: selectivity, Factor Xa over Factor XIa
Sequence of Factor Xa (P00742 235-488): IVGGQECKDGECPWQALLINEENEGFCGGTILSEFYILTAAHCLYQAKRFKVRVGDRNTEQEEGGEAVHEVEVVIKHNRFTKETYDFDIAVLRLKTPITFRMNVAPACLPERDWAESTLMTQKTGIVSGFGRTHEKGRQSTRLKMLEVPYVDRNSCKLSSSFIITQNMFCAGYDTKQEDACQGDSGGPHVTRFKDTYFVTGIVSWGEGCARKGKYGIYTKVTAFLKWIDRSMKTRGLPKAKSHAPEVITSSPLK
Sequence of Factor Xa (P00742 41-179 partner): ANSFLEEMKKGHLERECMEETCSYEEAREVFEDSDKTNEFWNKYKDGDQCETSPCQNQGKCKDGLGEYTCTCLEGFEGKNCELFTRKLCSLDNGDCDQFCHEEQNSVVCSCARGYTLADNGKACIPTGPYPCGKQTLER
Summary of the method: as §1

Sequence of Factor XIa (P03951 388-625): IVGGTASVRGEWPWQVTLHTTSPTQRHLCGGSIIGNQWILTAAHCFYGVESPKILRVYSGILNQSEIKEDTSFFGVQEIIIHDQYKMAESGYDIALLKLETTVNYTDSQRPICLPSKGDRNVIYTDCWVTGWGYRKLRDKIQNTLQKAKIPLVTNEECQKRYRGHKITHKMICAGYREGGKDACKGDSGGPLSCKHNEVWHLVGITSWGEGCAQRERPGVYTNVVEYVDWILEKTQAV
Sequence of Factor XIa (P03951 19-387 partner): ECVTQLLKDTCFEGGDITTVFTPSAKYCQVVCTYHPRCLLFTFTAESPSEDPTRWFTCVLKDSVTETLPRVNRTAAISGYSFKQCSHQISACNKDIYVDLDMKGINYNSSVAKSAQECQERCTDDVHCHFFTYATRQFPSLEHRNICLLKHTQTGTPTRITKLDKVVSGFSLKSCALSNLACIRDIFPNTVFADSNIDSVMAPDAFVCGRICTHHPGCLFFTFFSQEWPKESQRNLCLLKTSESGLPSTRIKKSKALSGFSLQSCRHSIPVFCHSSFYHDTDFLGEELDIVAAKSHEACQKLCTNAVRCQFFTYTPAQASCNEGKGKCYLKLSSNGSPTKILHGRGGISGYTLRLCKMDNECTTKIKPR

Molecule | IC50 (Factor XIa) [nM] | Ratio: Thrombin/FXIa (Thrombin) | Ratio: Trypsin/FXIa (Trypsin) | Ratio: FXa/FXIa (Factor Xa)
CC[C@@H](NC(=O)N1C(=O)[C@H](Cc2cc(C)nc(N)c2)[C@H]1C(=O)N(C)c1nccn1C)c1ccc(Cl)cc1 [Compound 1-105, (2S,3R)-3-((2-amino-6-methylpyridin-4-yl)methyl)-N2-(1-methyl-1H-imidazol-2-yl)-N1-((R)-1-(4-chlorophenyl)propyl)-N2-methyl-4-oxoazetidine-1,2-dicarboxamide] | 10 to 100 | H (“H” indicates 101-1000) | G (“G” indicates 1-100) | I (“I” indicates > 500)
CC[C@@H](NC(=O)N1C(=O)[C@H](Cc2ccnc(NC)c2)[C@H]1C(=O)N(C)c1ccn(C)n1)c1cccc(Cl)c1 [Compound 1-37, (2S,3R)-3-((2-methylaminopyridin-4-yl)methyl)-N2-(1-methyl-1H-pyrazol-3-yl)-N1-((R)-1-(3-chlorophenyl)propyl)-N2-methyl-4-oxoazetidine-1,2-dicarboxamide] | 10 to 100 | H (“H” indicates 101-1000) | G (“G” indicates 1-100) | H (“H” indicates 101-1000)
CC[C@@H](NC(=O)N1C(=O)[C@H](Cc2cc(C)nc(N)c2)[C@H]1C(=O)N(C)c1nccn1C)c1ccc(F)cc1 [Compound 1-106, (2S,3R)-3-((2-amino-6-methylpyridin-4-yl)methyl)-N2-(1-methyl-1H-imidazol-2-yl)-N1-((R)-1-(4-fluorophenyl)propyl)-N2-methyl-4-oxoazetidine-1,2-dicarboxamide] | < 10 | H (“H” indicates 101-1000) | G (“G” indicates 1-100) | I (“I” indicates > 500)
CC[C@@H](NC(=O)N1C(=O)[C@H](Cc2ccnc(N)c2)[C@H]1C(=O)N(C)c1nccn1C)c1ccc(F)cc1 [Compound 1-98, (2S,3R)-3-((2-aminopyridin-4-yl)methyl)-N2-(1-methyl-1H-imidazol-2-yl)-N1-((R)-1-(4-fluorophenyl)propyl)-N2-methyl-4-oxoazetidine-1,2-dicarboxamide] | < 10 | H (“H” indicates 101-1000) | G (“G” indicates 1-100) | I (“I” indicates > 500)
CC[C@@H](NC(=O)N1C(=O)[C@H](Cc2ccnc(NC)c2)[C@H]1C(=O)N(C)c1cccs1)c1cccc(Cl)c1 [Compound 1-44, (2S,3R)-3-((2-methylaminopyridin-4-yl)methyl)-N2-(thiophen-2-yl)-N1-((R)-1-(3-chlorophenyl)propyl)-N2-methyl-4-oxoazetidine-1,2-dicarboxamide] | < 10 | H (“H” indicates 101-1000) | G (“G” indicates 1-100) | H (“H” indicates 101-1000)
CC[C@@H](NC(=O)N1C(=O)[C@H](Cc2cc(C)nc(N)c2)[C@H]1C(=O)N(C)c1nccn1C)c1cc(C)ccc1Cl [Compound 1-111, (2S,3R)-3-((2-amino-6-methylpyridin-4-yl)methyl)-N2-(1-methyl-1H-imidazol-2-yl)-N1-((R)-1-(2-chloro-5-methylphenyl)propyl)-N2-methyl-4-oxoazetidine-1,2-dicarboxamide] | < 10 | H (“H” indicates 101-1000) | G (“G” indicates 1-100) | H (“H” indicates 101-1000)
CC[C@@H](NC(=O)N1C(=O)[C@H](Cc2ccnc(N)c2)[C@H]1C(=O)N(C)c1ccnn1C)c1ccc(F)c(C)c1F [Compound 1-200] | < 10 | I (“I” indicates > 500) | H (“H” indicates 101-1000) | I (“I” indicates > 500)
CC[C@@H](NC(=O)N1C(=O)[C@H](Cc2ccnc(N)c2)[C@H]1C(=O)N(C)c1ccn(C)n1)c1ccc(C)c(F)c1 [Compound 1-136, (2S,3R)-3-((2-aminopyridin-4-yl)methyl)-N2-(1-methyl-1H-pyrazol-3-yl)-N1-((R)-1-(3-fluoro-4-methylphenyl)propyl)-N2-methyl-4-oxoazetidine-1,2-dicarboxamide] | < 10 | H (“H” indicates 101-1000) | G (“G” indicates 1-100) | H (“H” indicates 101-1000)
(2S,3R)-3-((2-aminopyridin-4-yl)methyl)-N2-(1-methyl-1H-pyrazol-3-yl)-N1-((S)-1-(3-chlorophenyl)ethyl)-N2-methyl-4-oxoazetidine-1,2-dicarboxamide [Compound 1-33] | < 10 | H (“H” indicates 101-1000) | G (“G” indicates 1-100) | H (“H” indicates 101-1000)
CC[C@@H](NC(=O)N1C(=O)[C@H](Cc2cc(C)nc(N)c2)[C@H]1C(=O)N(C)c1nccn1C)c1cc(C)ccc1F [Compound 1-112, (2S,3R)-3-((2-amino-6-methylpyridin-4-yl)methyl)-N2-(1-methyl-1H-imidazol-2-yl)-N1-((R)-1-(2-fluoro-5-methylphenyl)propyl)-N2-methyl-4-oxoazetidine-1,2-dicarboxamide] | 10 to 100 | H (“H” indicates 101-1000) | G (“G” indicates 1-100) | I (“I” indicates > 500)
CC[C@@H](NC(=O)N1C(=O)[C@H](Cc2ccnc(N)c2)[C@H]1C(=O)N(C)c1nccn1C)c1cc(F)c(F)c(F)c1 [Compound 1-193, (2S,3R)-3-((2-aminopyridin-4-yl)methyl)-N2-(1-methyl-1H-imidazol-2-yl)-N1-((R)-1-(3,4,5-trifluorophenyl)propyl)-N2-methyl-4-oxoazetidine-1,2-dicarboxamide] | < 10 | H (“H” indicates 101-1000) | G (“G” indicates 1-100) | I (“I” indicates > 500)
CC[C@@H](NC(=O)N1C(=O)[C@H](Cc2ccnc(N)c2)[C@H]1C(=O)N(C)c1nccn1C)c1ccc(C)c(C)c1 [Compound 1-100, (2S,3R)-3-((2-aminopyridin-4-yl)methyl)-N2-(1-methyl-1H-imidazol-2-yl)-N1-((R)-1-(3,4-dimethylphenyl)propyl)-N2-methyl-4-oxoazetidine-1,2-dicarboxamide] | < 10 | H (“H” indicates 101-1000) | G (“G” indicates 1-100) | H (“H” indicates 101-1000)
(2S,3R)-3-((2-aminopyridin-4-yl)methyl)-N2-(1-methyl-1H-imidazol-4-yl)-N1-((R)-1-cyclohexyl-2,2,2-trifluoroethyl)-N2-methyl-4-oxoazetidine-1,2-dicarboxamide [Compound 1-70] | < 10 | G (“G” indicates 1-100) | G (“G” indicates 1-100) | I (“I” indicates > 500)
CC[C@@H](NC(=O)N1C(=O)[C@H](Cc2ccnc(N)c2)[C@H]1C(=O)N(C)c1ccn(C)n1)c1cc(F)c(F)c(F)c1 [Compound 1-197, (2S,3R)-3-((2-aminopyridin-4-yl)methyl)-N2-(1-methyl-1H-pyrazol-3-yl)-N1-((R)-1-(3,4,5-trifluorophenyl)propyl)-N2-methyl-4-oxoazetidine-1,2-dicarboxamide] | < 10 | I (“I” indicates > 500) | H (“H” indicates 101-1000) | I (“I” indicates > 500)
CC[C@@H](NC(=O)N1C(=O)[C@H](Cc2ccnc(N)c2)[C@H]1C(=O)N(C)c1nccn1C)c1cc(C)ccc1Cl [Compound 1-101, (2S,3R)-3-((2-aminopyridin-4-yl)methyl)-N2-(1-methyl-1H-imidazol-2-yl)-N1-((R)-1-(2-chloro-5-methylphenyl)propyl)-N2-methyl-4-oxoazetidine-1,2-dicarboxamide] | < 10 | H (“H” indicates 101-1000) | G (“G” indicates 1-100) | H (“H” indicates 101-1000)
CCc1cccc([C@@H](CC)NC(=O)N2C(=O)[C@H](Cc3ccnc(N)c3)[C@H]2C(=O)N(C)c2cnn(C)c2)c1 [Compound 1-16, (2S,3R)-3-((2-aminopyridin-4-yl)methyl)-N2-(1-methyl-1H-pyrazol-4-yl)-N1-((R)-1-(3-ethylphenyl)propyl)-N2-methyl-4-oxoazetidine-1,2-dicarboxamide] | < 10 | G (“G” indicates 1-100) | G (“G” indicates 1-100) | H (“H” indicates 101-1000)
CC[C@@H](NC(=O)N1C(=O)[C@H](Cc2ccnc(N)c2)[C@H]1C(=O)N(C)c1nccn1C)c1ccc(OC(F)(F)F)cc1 [Compound 1-97, (2S,3R)-3-((2-aminopyridin-4-yl)methyl)-N2-(1-methyl-1H-imidazol-2-yl)-N1-((R)-1-(4-trifluoromethoxyphenyl)propyl)-N2-methyl-4-oxoazetidine-1,2-dicarboxamide] | 10 to 100 | H (“H” indicates 101-1000) | G (“G” indicates 1-100) | H (“H” indicates 101-1000)
